# Results as given in patent publication US9988359B2, “Herbicidally active benzoic acid amides” (BAYER CROPSCIENCE AKTIENGESELLSCHAFT, priority 2014, dated 2018).
# Tested on: AMARE Amaranthus retroflexus
# Assay: Post-emergence herbicidal action against harmful plants
# Format: in vivo
# Settings: dosage 80 g/ha, assessed visually after about 3 weeks, 100% = plants have died
# Experimental: (§1) AMARE Amaranthus retroflexus PHBPU Pharbitis purpureum Seeds of monocotyledonous and dicotyledonous weed and crop plants are laid out in sandy loam in wood-fiber pots, covered with soil and cultivated in a greenhouse under good growth conditions. 2 to 3 weeks after sowing, the test plants are treated at the one-leaf stage. The compounds of the invention, formulated in the form of wettable powders (WP) or as emulsion concentrates (EC), are then sprayed onto the green parts of the plants in the form of an aqueous suspension or emulsion at a water application rate equating to 600 to 800 l/ha, with addition of 0.2% wetting agent. After the test plants have been left to stand in the greenhouse under optimal growth conditions for about 3 weeks, the action of the preparations is assessed visually in comparison to untreated controls (herbicidal action in percent (%): 100% activity=the plants have died, 0% activity=like control plants).
row,SMILES,Activity against AMARE [%]
1,CSc1c(C)ccc(C(=O)Nc2ncnn2C)c1C,90
2,CSc1c(C)ccc(C(=O)Nc2ncnn2C)c1Br,70
3,Cc1c(C(=O)Nc2ncnn2C)ccc(Cl)c1S(C)(=O)=O,60
4,Cc1ccc(C(=O)Nc2ncnn2C)c(C)c1,0
5,Cc1ccc(C(=O)Nc2ncnn2C)c(C)c1S(C)(=O)=O,90
6,Cc1ccc(C(=O)Nc2ncnn2C)c(C)c1[S+](C)[O-] (stereo not shown),90
7,Cc1ccc(C(=O)Nc2ncnn2C)c(Br)c1S(C)(=O)=O,60
8,Cc1ccc(C(=O)Nc2ncnn2C)c(Br)c1[S+](C)[O-] (stereo not shown),70

# Tested on: PHBPU Pharbitis purpureum
# Assay: as above
# Format: in vivo
# Settings: dosage 20 g/ha, assessed visually after about 3 weeks, 100% = plants have died
# Experimental: as §1
row,SMILES,Activity against PHBPU [%]
1,COSc1c(C)ccc(C(=O)Nc2nnc(C)o2)c1Br,40
2,COSc1c(C)ccc(C(=O)Nc2nnc(C)o2)c1C,60

# Same assay, conditions: dosage 20 g/ha, visual scoring after about 3 weeks vs untreated controls (100% = plants have died, 0% = like control plants)
row,SMILES,Activity against PHBPU [%]
1,CSc1c(Br)ccc(C(=O)Nc2nnc(C)o2)c1C,10
2,CSc1c(C)ccc(C(=O)Nc2nnc(C)o2)c1Br,0
3,CSc1c(C)ccc(C(=O)Nc2nnc(C)o2)c1C,60

# Tested on: SETVI Setaria viridis
# Assay: as above
# Format: in vivo
# Settings: dosage 80 g/ha, assessed visually after about 3 weeks, 100% = plants have died
# Experimental: as §1, with “SETVI Setaria viridis” for “AMARE Amaranthus retroflexus PHBPU Pharbitis purpureum”
row,SMILES,Activity against SETVI [%]
1,CSc1c(Cl)ccc(C(=O)Nc2nonc2C)c1C,0
2,Cc1nonc1NC(=O)c1ccc(C(F)(F)F)c(S(C)(=O)=O)c1C,40
3,Cc1nonc1NC(=O)c1ccc(C#N)c(S(C)(=O)=O)c1C,0
4,CSc1c(C)ccc(C(=O)Nc2nonc2C)c1C,0
5,Cc1ccc(C(=O)Nc2nonc2C)c(C)c1S(C)(=O)=O [drawing 27],80
6,Cc1ccc(C(=O)Nc2nonc2C)c(C)c1S(C)(=O)=O [drawing 24],40
